Values of other authors, collected in patent US20030215917A1, “Assay for evaluation of activity of compounds against HCV using a novel detection system in the HCV replicon” (priority 2002, published 2003).

Tests used:
[1] = test system: Hepatitis B virus (HBV), Hepatitis C virus (HCV), Yellow Fever virus, Dengue Virus, Japanese Encephalitis, West Nile virus and related flaviviruses
[2] = test system: host cells
[3] = test system: HCV replicon cells; conditions: at high concentration; stated as known
[4] = test system: HCV and HCV replicon; conditions: stated as known

Compound	activity against viruses [1]	inhibition of the replication of the virus (viral growth) [1]	toxicity to the host cells [2]	cytotoxicity effect [3]	inhibition of viral replication [4]
O=C1OCc2c1cc1ccc3c(c1c2-c1ccc2c(c1)OCO2)OCO3 [Helioxanthin]	high activity	potent inhibition	very low toxicity	known to have cytotoxicity effect at high concentration	
interferon alpha					known to inhibit viral replication
